Results reported in the Kinase Knowledgebase extract (Sharma et al. 2016).

Molecular target: CDK2 (UniProt P24941)
Test: Enzyme Assay
Settings: for inhibition: concentration not given here

Row | Structure (SMILES) | inhibition [%] | Ki [nM]
1 | COc1cc(Nc2nc(N)c(-c3nc(-c4ccc(C)cc4)cs3)s2)cc(OC)c1OC | -2.1 | –
2 | COc1cc(Nc2nc(N)c(-c3nc(-c4ccc[nH]4)cs3)s2)cc(OC)c1OC | 14.3 | –
3 | Cc1c(-c2csc(-c3sc(Nc4ccc(C(C)C)cc4)nc3N)n2)sc2ccc(Cl)cc12 | 34.8 | –
4 | COc1cc(Nc2nc(N)c(-c3nc(-c4ccccc4OC(=O)c4ccccc4)cs3)s2)cc(OC)c1OC | 4.6 | –
5 | CCOC(=O)c1ccccc1-c1csc(-c2sc(Nc3cc(OC)c(OC)c(OC)c3)nc2N)n1 | 4.4 | –
6 | Nc1nc(Nc2ccc(S(N)(=O)=O)cc2)sc1C1=NC2(O)OCCC2S1 (stereo unspecified) | 29 | –
7 | COc1cc(Nc2nc(N)c(-c3nc(-c4ccc(O)c(O)c4)cs3)s2)cc(OC)c1OC | -10.3 | –
8 | COc1cc(Nc2nc(N)c(-c3nc(-c4sc5ccc(Cl)cc5c4C)cs3)s2)cc(OC)c1OC | 9.65 | –
9 | COC(=O)c1ccc(-c2csc(-c3sc(Nc4cc(OC)c(OC)c(OC)c4)nc3N)n2)cc1 | 0 | –
10 | COc1cc(O)c(Br)c(-c2csc(-c3sc(Nc4cc(OC)c(OC)c(OC)c4)nc3N)n2)c1 | – | 710
11 | CC(C)c1ccc(Nc2nc(N)c(-c3nc(-c4ccc(OC(=O)c5ccccc5)cc4)cs3)s2)cc1 | 7.3 | –
12 | CCOC(=O)c1cc(-c2csc(-c3sc(Nc4cc(OC)c(OC)c(OC)c4)nc3N)n2)on1 | 23.2 | –
13 | CN(C)c1ccc(Nc2nc(N)c(-c3nc(-c4ccccc4[N+](=O)[O-])cs3)s2)cc1 | 8.3 | –
14 | COc1cc(Nc2nc(N)c(-c3nc(-c4ccccc4[N+](=O)[O-])cs3)s2)cc(OC)c1OC | 1.9 | –
15 | COc1cccc(-c2csc(-c3sc(Nc4cc(OC)c(OC)c(OC)c4)nc3N)n2)c1 | -0.4 | –
16 | COc1cc(Nc2nc(N)c(-c3noc(-c4ccsc4)n3)s2)cc(OC)c1OC | 21 | –
17 | Cc1c(-c2csc(-c3sc(Nc4ccc(N(C)C)cc4)nc3N)n2)sc2ccc(Cl)cc12 | 27.2 | –
18 | COc1ccc(-c2csc(-c3sc(Nc4ccc(C(C)C)cc4)nc3N)n2)c(OC)c1 | -22.6 | –
19 | COc1cc(Nc2nc(N)c(-c3nc(-c4cc(-c5ccc(Cl)c(Cl)c5)no4)cs3)s2)cc(OC)c1OC | 17.5 | –
20 | CCCCCc1ccc(-c2csc(-c3sc(Nc4cc(OC)c(OC)c(OC)c4)nc3N)n2)cc1 | 11.3 | –
21 | Nc1nc(Nc2ccc(S(N)(=O)=O)cc2)sc1-c1nc(-c2ccc(Cl)cc2Cl)cs1 | 36 | –
22 | CN(C)c1ccc(Nc2nc(N)c(-c3nc(-c4ccc5c(c4)CCC(=O)N5)cs3)s2)cc1 | -2.5 | –

Row | Structure (SMILES) | inhibition [%] | Ki [nM]
23 | COc1cc(Nc2nc(N)c(-c3nc(-c4ccc([N+](=O)[O-])cc4)cs3)s2)cc(OC)c1OC | -14.4 | –
24 | Nc1nc(Nc2ccc(S(N)(=O)=O)cc2)sc1-c1nc(-c2cccc([N+](=O)[O-])c2)cs1 | 17.8 | –
25 | COc1cc(Nc2nc(N)c(-c3nc(-c4ccc5ccccc5c4)cs3)s2)cc(OC)c1OC | 11.6 | –
26 | COc1cc(Nc2nc(N)c(-c3nc(-c4ccc5c(c4)OCCO5)cs3)s2)cc(OC)c1OC | 5.4 | –
27 | CCOC(=O)c1nc(-c2sc(Nc3ccc(S(N)(=O)=O)cc3)nc2N)sc1Cc1ccccc1 | 36 | –
28 | COc1ccc2nc(-c3ccccc3)c(-c3csc(-c4sc(Nc5cc(OC)c(OC)c(OC)c5)nc4N)n3)cc2c1 | -2.7 | –
29 | Nc1nc(Nc2ccc(S(N)(=O)=O)cc2)sc1-c1nc(-c2ccc(F)cc2)cs1 | 27 | –
30 | COc1cc(Nc2nc(N)c(-c3nc(-c4ccc(C)cc4C)cs3)s2)cc(OC)c1OC | 1.2 | –
31 | Cc1onc(-c2ccccc2)c1-c1csc(-c2sc(Nc3ccc(S(N)(=O)=O)cc3)nc2N)n1 | -4.5 | –
32 | COc1cc(Nc2nc(N)c(-c3nc(-c4ccc5c(c4)C(C)(C)CCC5(C)C)cs3)s2)cc(OC)c1OC | 4.2 | –
33 | COc1ccc(OC)c(-c2csc(-c3sc(Nc4cc(OC)c(OC)c(OC)c4)nc3N)n2)c1 | 12.2 | –
34 | COc1cc(Nc2nc(N)c(-c3nc(-c4c(Cl)c(Cl)nc(Cl)c4Cl)cs3)s2)cc(OC)c1OC | 10.3 | –
35 | COc1cc(Nc2nc(N)c(-c3nc(-c4cc(C(=O)C(Cl)(Cl)Cl)n(C)c4)cs3)s2)cc(OC)c1OC | 3.9 | –
36 | COc1ccccc1-c1csc(-c2sc(Nc3cc(OC)c(OC)c(OC)c3)nc2N)n1 | -3.5 | –
37 | COc1cc(Nc2nc(N)c(-c3nc(-c4c(Cl)cc(C(F)(F)F)cc4Cl)cs3)s2)cc(OC)c1OC | -6 | –
38 | COc1cc(Nc2nc(N)c(-c3nc(-c4cccc(OC(=O)c5ccccc5)c4)cs3)s2)cc(OC)c1OC | -12.3 | –
39 | Nc1nc(Nc2ccc(S(N)(=O)=O)cc2)sc1-c1nc(C(=O)Nc2ccccc2)cs1 | – | 58
40 | COc1ccc(-c2csc(-c3sc(Nc4cc(OC)c(OC)c(OC)c4)nc3N)n2)c(OC)c1 | 4.9 | –
41 | CC(C)c1ccc(Nc2nc(N)c(-c3nc(-c4ccc5oc6ccccc6c5c4)cs3)s2)cc1 | -4.3 | –
42 | COc1cc(Nc2nc(N)c(-c3nc(-c4ccc(Cl)cc4Cl)cs3)s2)cc(OC)c1OC | 3.8 | –
43 | COc1cc(Nc2nc(N)c(-c3nc(-c4ccc(F)c(F)c4)cs3)s2)cc(OC)c1OC | -5 | –
44 | COc1cc(Nc2nc(N)c(-c3nc(-c4ccc(CC(=O)O)s4)cs3)s2)cc(OC)c1OC | 26.7 | –

Row | Structure (SMILES) | inhibition [%] | Ki [nM]
45 | COc1cc(Nc2nc(N)c(-c3nc(-c4ccc(Cl)c(C)c4)cs3)s2)cc(OC)c1OC | -4.4 | –
46 | COc1cc(Nc2nc(N)c(C3=NC(c4cc(F)c(C)c(Cl)c4)CS3)s2)cc(OC)c1OC (stereo unspecified) | -7.5 | –
47 | COc1cc(Nc2nc(N)c(-c3nc(-c4sc5ccccc5c4C)cs3)s2)cc(OC)c1OC | 23.1 | –
48 | Cc1c(F)cc(-c2csc(-c3sc(Nc4ccc(S(N)(=O)=O)cc4)nc3N)n2)cc1Cl | 25 | –
49 | COc1cc(OC)c(-c2csc(-c3sc(Nc4cc(OC)c(OC)c(OC)c4)nc3N)n2)c(O)c1Cl | 11.8 | –
50 | COc1cc(Nc2nc(N)c(-c3nc(-c4c(C)c(C)c(C)c(C)c4C)cs3)s2)cc(OC)c1OC | 19.8 | –
51 | Cc1c(-c2csc(-c3sc(Nc4ccc(S(N)(=O)=O)cc4)nc3N)n2)sc2ccc(Cl)cc12 | 61.5 | –
52 | COc1cc(Nc2nc(N)c(-c3nc(-c4cccc([N+](=O)[O-])c4)cs3)s2)cc(OC)c1OC | 6.6 | –
53 | COc1cc(Nc2nc(N)c(-c3nc(-c4ccc(C(F)(F)F)cc4)cs3)s2)cc(OC)c1OC | 13.9 | –
54 | Nc1nc(Nc2ccc(S(N)(=O)=O)cc2)sc1-c1nc(-c2ccc(F)cc2F)cs1 | 57 | –
55 | CCc1cc2c(cc1-c1csc(-c3sc(Nc4cc(OC)c(OC)c(OC)c4)nc3N)n1)C(C)(C)CCC2(C)C | 13.8 | –
56 | COc1cc(Nc2nc(N)c(-c3nc(-c4cc(Br)c(Cl)s4)cs3)s2)cc(OC)c1OC | -0.2 | –
57 | COc1cc(Nc2nc(N)c(-c3nc(-c4cc(C(C)(C)C)c(O)c(C(C)(C)C)c4)cs3)s2)cc(OC)c1OC | 5.3 | –
58 | COc1cc(Nc2nc(N)c(-c3nc(-c4ccc(-c5ccc(Cl)cc5Cl)o4)cs3)s2)cc(OC)c1OC | 12.4 | –
59 | COc1cc(Nc2nc(N)c(-c3nc(-c4ccc(C#N)cc4)cs3)s2)cc(OC)c1OC | 15.6 | –
60 | COc1cc(Nc2nc(N)c(-c3nc(-c4cc(C)sc4C)cs3)s2)cc(OC)c1OC | 7.3 | –
61 | COc1cc(Nc2nc(N)c(-c3nc(-c4c(-c5ccccc5)noc4C)cs3)s2)cc(OC)c1OC | 13.6 | –
62 | CCN(CC)c1ccc(-c2csc(-c3sc(Nc4cc(OC)c(OC)c(OC)c4)nc3N)n2)cc1 | 6.3 | –
63 | N#Cc1ccc(-c2csc(-c3sc(Nc4ccc(S(N)(=O)=O)cc4)nc3N)n2)cc1 | 13.3 | –
64 | Nc1nc(Nc2ccc(S(N)(=O)=O)cc2)sc1-c1nc(-c2cc3ccccc3s2)cs1 | – | 3200
65 | COc1cc(Nc2nc(N)c(-c3nc(-c4ccc(-c5ccccc5)cc4)cs3)s2)cc(OC)c1OC | 20.4 | –
66 | COc1cc(Nc2nc(N)c(-c3nc(-c4ccc(O)cc4)cs3)s2)cc(OC)c1OC | 3 | –

Row | Structure (SMILES) | inhibition [%] | Ki [nM]
67 | COc1cc(Nc2nc(N)c(-c3nc(-c4cc5cc(Cl)ccc5o4)cs3)s2)cc(OC)c1OC | -6 | –
68 | COc1cc(Nc2nc(N)c(-c3nc(-c4cc(C)c(O)c(C)c4)cs3)s2)cc(OC)c1OC | 28.4 | –
69 | COc1cc(Nc2nc(N)c(-c3nc(-c4cccc(Br)c4)cs3)s2)cc(OC)c1OC | 15.6 | –
70 | COc1cc(Nc2nc(N)c(-c3nc(-c4cc(-c5ccccc5)no4)cs3)s2)cc(OC)c1OC | 11.2 | –
71 | COc1cc(Nc2nc(N)c(-c3nc(-c4ccc(OC(=O)c5ccccc5)cc4)cs3)s2)cc(OC)c1OC | 14.6 | –
72 | CC(C)c1ccc(Nc2nc(N)c(-c3nc(-c4ccccc4)cs3)s2)cc1 | 20.9 | –
73 | Nc1nc(Nc2ccc(S(N)(=O)=O)cc2)sc1-c1nc(-c2ccc(-c3ccccc3)cc2)cs1 | 0 | –
74 | COc1cc(Nc2nc(N)c(-c3nc(-c4ccc5c(c4)CCC(=O)N5)cs3)s2)cc(OC)c1OC | -7.8 | –
75 | COc1ccccc1-c1csc(-c2sc(Nc3ccc(N(C)C)cc3)nc2N)n1 | -6.4 | –
76 | CCCCCc1ccc(-c2csc(-c3sc(Nc4ccc(N(C)C)cc4)nc3N)n2)cc1 | -6 | –
77 | COc1cc(Nc2nc(N)c(-c3nc(-c4csc5ccccc45)cs3)s2)cc(OC)c1OC | 9.1 | –
78 | CC(C)c1ccc(Nc2nc(N)c(-c3nc(-c4ccc(Cl)cc4Cl)cs3)s2)cc1 | 15.1 | –
79 | CN(C)c1ccc(Nc2nc(N)c(-c3nc(-c4cccc(OC(=O)c5ccccc5)c4)cs3)s2)cc1 | 27.1 | –
80 | COc1cc(Nc2nc(N)c(-c3nc(-c4ccc(Cl)cc4)cs3)s2)cc(OC)c1OC | 0.1 | –
81 | COc1cc(Nc2nc(N)c(-c3nc(-c4ccc(F)cc4)cs3)s2)cc(OC)c1OC | 35 | –
82 | COc1cc(Nc2nc(N)c(-c3nc(-c4ccccc4OC(C)=O)cs3)s2)cc(OC)c1OC | 1.6 | –
83 | COc1cc(Nc2nc(N)c(-c3nc(-c4ccc5oc6ccccc6c5c4)cs3)s2)cc(OC)c1OC | 19 | –
84 | COc1cc(Nc2nc(N)c(-c3nc(-c4ccc(Cl)c(Cl)c4)cs3)s2)cc(OC)c1OC | 7.3 | –
85 | COc1cc(Nc2nc(N)c(-c3nc(-c4ccc(Cl)c([N+](=O)[O-])c4)cs3)s2)cc(OC)c1OC | -4.8 | –
86 | CCCCCc1ccc(-c2csc(-c3sc(Nc4ccc(S(N)(=O)=O)cc4)nc3N)n2)cc1 | -9.9 | –
